In paper PMC11969024, “Development of chemokine network inhibitors using combinatorial saturation mutagenesis” (Communications Biology, 2025):
Ends that are not written are not given here.

Experiments:
THP1 cells = assay: Chemokine dose-response, THP1 cell migration; format: cell-based, human; settings: mean of biological replicates (2-7); for Mean pEC80: 3-parameter log-logistic fit, maximum fixed at 100%
Description: (§1) Cell lines were confirmed mycoplasma free by monthly testing using a MycoAlert^TM kit (LT07-118, Lonza) following the manufacturer’s instructions. THP1 cells: THP1 cells (ECACC 88081201, a human monocyte leukemia cell line[51]) were obtained from ECACC and were cultured in T175 flasks at 0.3-1 × 10^6 cells/mL in Roswell Park Memorial Institute (RPMI) 1640 medium (R0883, Sigma) with 10% FBS (F9665, Sigma) and 5mM L-glutamine (G7513, Sigma), 37 °C, 5% CO2. J:CXCR1 cells: The J:CXCR1 cell line was cultured in the same manner as THP1 cells at 0.15-1 × 10^6 cells per mL[37]. Activated T-cells: T-cells were isolated, activated and expanded as follows. Briefly, density gradient centrifugation using Lymphoprep^TM density gradient medium (07801, […] Technologies) and a SepMate^TM isolation tube (85450, […] Technologies) was used to isolate peripheral blood mononuclear cells from human leukocyte cones. Two rounds of purification using a human CD8 + T-cell isolation kit (480011, BioLegend) were used to isolate CD8 + T-cells from peripheral blood mononuclear cells. Activation of CD8 + T-cells was performed in ImmunoCult^TM-XF T-cell expansion medium (10982, […] Technologies) with an anti-CD3/anti-CD28 T-cell activator at 25 μl/ml (10991, […] Technologies), supplemented with 10 ng/ml recombinant human IL-2 (200-02, PeproTech) with 1% penicillin/streptomycin. T-cells were passaged every 2–3 days in TexMACS medium (130-097-196, Miltenyi Biotec), supplemented with 10 ng/ml human IL-2 (200-05-250, Peprotech) and incubated at 37 °C in 5% CO2. CD8 + T-cells were frozen at day 10-13 after initial activation, at 20×10^6 cell/ml in TexMACS medium supplemented with 10% DMSO (D2650, Sigma) in liquid nitrogen. Activated CD8^+ T-cells were recovered in TexMACs medium at 0.3 × 10^6 cell/ml and incubated at 37 °C in 5% CO2, 24 h prior to use. For buffy coat experiments a mixture of primary human monocytes, granulocytes and lymphocytes was isolated from human buffy coat. Briefly, RBCs were sedimented in HetaSep (07806, […] Technologies) with 1 mL of HetaSep per 5 mL of blood for 15 min at 37 °C. The buffy coat layer was collected from the top and washed in 50 ml MACS buffer (PBS (P4417, Sigma), 0.5% BSA (A7030, Sigma), 0.075% EDTA (E5134, Sigma), pH 7.2), by centrifugation at 2000 g for 10 min at room temperature. The pellet was resuspended in 10 mL of 1x RBC lysis solution (130-094-183, Miltenyi Biotec) and lysed for 10 min at room temperature. The cells were then washed in MACS buffer twice as above. The final pellet was resuspended in 1 mL of MACS buffer per 5 mL of initial blood volume and counted using cell size FSC-H/SSC-H parameters with gate settings previously defined by immunostaining (see below). The leukocytes were then resuspended in assay buffer for cell migration and used within 30 min of isolation.
(§2) Cell counts were determined using an ATTUNE NxT Flow Cytometer with Cytkick autosampler (ThermoFisher), based on cell size parameters FSC-H/SSC-H, with previously defined gate settings. FSC-H/SSC-H gate settings for primary white blood cells from buffy coats were determined using flow cytometry to establish the granulocyte, monocyte and lymphocyte populations (Supplementary Fig. 13). Briefly, cells were labelled with anti-CD3 (Miltenyi Biotec, 130-113-135) to identify the T cell population, anti-CD14 (Miltenyi Biotec, 130-110-578) to identify the monocyte population, and with anti-CD16 (Miltenyi Biotec, 130-113-951) to identify the granulocyte population. Negative control cells were labelled with anti-human IgG1 (Miltenyi Biotec, 130-113-434). All antibodies were allophycocyanin (APC) conjugated. 100,000 white blood cells were added to Eppendorf tubes and centrifuged at 300 g for 3 min. The supernatant was discarded, and the cells resuspended in 98 µL of MACS buffer (1× PBS, 2 mM EDTA and 0.5% BSA, sterile filtered). 2 µl of antibody was added to the cells. […]

activated T-cells (ATC) = assay: Chemokine dose-response, activated T-cell (ATC) migration; format: cell-based, human; settings: mean of biological replicates (3-6)
Description: as §1, §2

[1] = lyophilised peptide, data provided by the manufacturer, ref GenScript, cited from earlier work; for Solubility, Water: C-terminal amide
[2] = system: panel of 22 biotinylated chemokines; assay: Saturation (NNK) mutagenesis phage-display selection against biotinylated chemokines, enrichment by NGS; format: binding, human; settings: two-sided Dunnett's test; for log2E compared to parental HD2, CXnC chemokines: 7 CXnC chemokines; for log2E compared to parental HD2, CC chemokines: 15 CC chemokines; for log2E compared to parental HD2, all chemokines: three selection rounds, 22 chemokines
From the text: 81-mer mutant oligonucleotides replacing NNK at each of the 16 peptide encoding residues were designed with the sequence arms 5’-[…], and […]-3’ at respective ends to enable amplification and cloning. Oligonucleotides (Genscript) were individually amplified and cloned into plasmid prSTOP4Nsi (described in[37]). prSTOP4Nsi was amplified using primers (Sigma): […]
Oligonucleotides were amplified using primers (Sigma): oligo_fwd: 5’-[…] and oligo_rev2: 5’-[…]. The PCR products were cloned into prSTOP4Nsi plasmid using NEB Builder HiFi Assembly (E5520, NEB) following instructions of the manufacturer. The vector pool was used to transform electrocompetent ElectroMAX™ DH5α-E™ cells (11319019, Invitrogen). Plasmid DNA was harvested by MaxiPrep (GeneJet Plasmid Maxiprep Kit (K0491, Thermo Scientific)). DNA was transformed into SS320 phage display electrocompetent cells (60512, Lucigen), following the manufacturer’s protocol. Following electroporation, cells were resuspended in 950 μL recovery media and transferred to 50 mL Falcon tubes. 100 μL 10^11 CFU/mL M13KO7 helper phage (N0315S, NEB) was added, and tubes shaken at 37 °C, 220 RPM, 1 h. 1 mL recovery culture was added to 2YT medium containing +50ug/mL carbenicillin (C9231, Sigma) and 25ug/mL kanamycin (K1377, Sigma), and grown overnight at 37 °C, 220 RPM. Phage was precipitated from culture supernatant by adding 22.5 mL of supernatant to 4.5 mL 20% PEG 8000 (89510, Sigma)/2.5 M NaCl (S9625, Sigma), incubating on ice for 30 min, and centrifuging at 12857 g, 4 °C, 10 min. The phage pellet was resuspended in 1 mL of PBT (PBS (P4417, Sigma), BSA (A7030, Sigma) 0.20%, Tween 20 (P1379, Sigma) 0.05%). Undissolved particulate matter was removed by centrifugation at 15871 g, 4 °C, 10 min. Glycerol (G5516, Sigma, 10% final (v/v) was added, and aliquots stored at −80 °C. A schematic of phage-display library construction is provided in Supplementary Fig. 12.
Phage display screening was performed as described. Experiments were performed in 96-well plates (Greiner Bio-One, 655180). Biotinylated chemokines or complement C5A (1μg, Almac or Protein Foundry) were incubated overnight at 4 °C with shaking at 250 RPM with 5μl streptavidin-coated magnetic beads (Dynabeads™ M-280 Streptavidin, Invitrogen, 11205D) in 100 μl PBS. Chemokine-bound beads were blocked for two hours in 200μl blocking buffer (PBS (phosphate-buffered saline, Sigma, P4417) + 0.2% BSA (bovine serum albumin, Sigma, A7030) with shaking at 250 RPM. Phage library (100μL, 10^10 CFU/mL) was bound to blocked beads for two hours at room temperature with shaking at 250 RPM. Beads were washed 15 times with PT buffer (PBS + 0.05% Tween 20 (Sigma, P1379)) to remove unbound phage then transferred to a fresh plate. Beads were incubated with 100μL phage-resistant Omnimax E. coli (Invitrogen, A10469) at optical density (OD600) 0.6-0.8, shaken at 37 °C for 30 min. Following this 10 µL M13K07 helper phage (NEB, N0315S, final concentration 10^10 CFU/mL) was added and shaken at 37 °C for 45 min. Cells were transferred to 1 mL 2YT medium (at pH7, MP Biomedicals™, 113012031, supplemented with 150 µg/mL carbenicillin (Sigma, C9231) and 75 µg/mL kanamycin (Sigma, K1377) in a 96-deep well block with V-bottom (Corning, CLS3960) and grown with overnight shaking at 37 °C, 200 RPM. Plates were either centrifuged at 2000g (4 °C, 30 min) or transferred to screw cap tubes and pelleted by centrifugation at 4000 g and 4 °C for 15 min. 540 µL of supernatant was transferred to a new 96-deep well plate, 60 µL of 10×PBT (10×PBS + 2% BSA + 0.5% Tween 20) added and stored at 4 °C for subsequent rounds. Phage display was carried out for three rounds. A schematic of phage-display library screening is provided in Supplementary Fig. 12.
We amplified inserts from the input library and from the selected phage population directly from phage by PCR using primers: 5’-[…] and 5’-[…] (Life Technologies). […]

[3] = system: activated CD8+T-cells (ATC); assay: Activated T-cell (ATC) migration induced by individual chemokines, inhibition by peptide; format: cell-based, human; settings: peptide 10 uM; chemokines at EC80; Dunnett's test
Description: as §1, §2

**Q.** For CCL2: human chemokine, Peprotech 300-04, which “Mean pEC80” value (THP1 cells) is on record?
**A.** 8.35 [M]

**Q.** And the “Mean pEC50” value (THP1 cells)?
**A.** 8.73 [M]

**Q.** Which “Mean pEC80” value (THP1 cells) does the source give for CCL3: human chemokine, Peprotech 300-08 here?
**A.** 9.31 [M]

**Q.** And the “Mean pEC50” value (THP1 cells)?
**A.** 9.64 [M]

**Q.** Which “Mean pEC80” value (THP1 cells) does the source give for CCL5: human chemokine, Peprotech 300-06 here?
**A.** 8.36 [M]

**Q.** And the “Mean pEC50” value (THP1 cells)?
**A.** 8.65 [M]

**Q.** What does the source list for CCL7: human chemokine, Peprotech 300-17?
**A.** Mean pEC80 (THP1 cells): 8.02 [M]; Mean pEC50 (THP1 cells): 8.37 [M]

**Q.** With “CCL19: human chemokine, Peprotech 300-29B” as the substance, how does the “Mean pEC50” value (activated T-cells (ATC)) read?
**A.** 7.91 [M]

**Q.** What about the “Mean pEC80” value (activated T-cells (ATC)) of the same substance?
**A.** 7.64 [M]

**Q.** With “CXCL9: human chemokine, Peprotech 300-26” as the substance, how does the “Mean pEC50” value (activated T-cells (ATC)) read?
**A.** 7.40 [M]

**Q.** And the “Mean pEC80” value (activated T-cells (ATC))?
**A.** 7.22 [M]

**Q.** With “CXCL10: human chemokine, Peprotech 300-12” as the substance, how does the “Mean pEC50” value (activated T-cells (ATC)) read?
**A.** 7.87 [M]

**Q.** What about the “Mean pEC80” value (activated T-cells (ATC)) of the same substance?
**A.** 7.50 [M]

**Q.** What does the source list for “CXCL11: human chemokine, Peprotech 300-46”?
**A.** Mean pEC50 (activated T-cells (ATC)): 8.25 [M]; Mean pEC80 (activated T-cells (ATC)): 7.99 [M]

**Q.** What does the source list for “CXCL12: human chemokine, Peprotech 300-28A”?
**A.** Mean pEC50 (activated T-cells (ATC)): 8.93 [M]; Mean pEC80 (activated T-cells (ATC)): 8.54 [M]

**Q.** What does the source list for DDDDWWDYAPLTCYFD [HD2CM526]?
**A.** Solubility, Water [1]: Insoluble; Solubility, DMSO [1]: Soluble; Solubility, PBS [1]: Insoluble

**Q.** With DEDDWDAYAPIWCYFT-NH2 [HD2CM304] as the substance, how does the “Solubility, Water” value [1] read?
**A.** Insoluble

**Q.** And the “Solubility, DMSO” value [1]?
**A.** Soluble

**Q.** And the “Solubility, PBS” value [1]?
**A.** Insoluble

**Q.** With DEDDWDDYAPITCYFT-NH2 [HD2CM307] as the substance, how does the “Solubility, Water” value [1] read?
**A.** Insoluble

**Q.** What about the “Solubility, DMSO” value [1] of the same substance?
**A.** Insoluble

**Q.** What about the “Solubility, HCOOH” value [1] of the same substance?
**A.** Soluble

**Q.** And the “Solubility, PBS” value [1]?
**A.** Insoluble

**Q.** For “EEDDYDAYAPLTCYFT [HD2T6D, HD2 point mutant]”, which “log2E compared to parental HD2, CXnC chemokines” value [2] is on record?
**A.** significant improvement

**Q.** What about the “log2E compared to parental HD2, CC chemokines” value [2] of the same substance?
**A.** significant improvement

**Q.** What about the “log2E compared to parental HD2, all chemokines” value [2] of the same substance?
**A.** significantly improved

**Q.** For “EEDDYTAYAPITCYFT [HD2L11I, HD2 point mutant]”, which “log2E compared to parental HD2, CC chemokines” value [2] is on record?
**A.** significant improvement

**Q.** What about the “log2E compared to parental HD2, all chemokines” value [2] of the same substance?
**A.** significantly improved

**Q.** And the “inhibition of CCL19, CCL21, CXCL9, and CXCL11-induced migration of ATCs compared to parental HD2” value [3]?
**A.** significant improvement in inhibition

**Q.** What does the source list for EEDDYTAYAPLTCYFT-NH2 [HD2]?
**A.** Solubility, Water [1]: Insoluble; Solubility, DMSO [1]: Soluble; Solubility, PBS [1]: Insoluble

**Q.** For “EEDDYTDYAPLTCYFT [HD2A7D, HD2 point mutant]”, which “log2E compared to parental HD2, CXnC chemokines” value [2] is on record?
**A.** significant improvement

**Q.** And the “log2E compared to parental HD2, all chemokines” value [2]?
**A.** significantly improved

**Q.** With “TLETDTFYECPDAYAY [HD2SCR, reference compound]” as the substance, how does the “Solubility, Water” value [1] read?
**A.** Insoluble

**Q.** What about the “Solubility, DMSO” value [1] of the same substance?
**A.** Soluble

**Q.** What about the “Solubility, PBS” value [1] of the same substance?
**A.** Insoluble
